Data: patent US8927500B2, “Peptidomimetic macrocycles” (Aileron Therapeutics, Inc., priority 2012, dated 2015)
Where two headings read alike, the source gives them in different places. Where a SMILES comes first, the peptide text is derived from it. Bridges are numbered along the chain shown (N, C = ends). [ ]: non-standard residue; d: D form. 2Nal = N[C@@H](Cc1ccc2ccccc2c1)C(=O)O; R8 = C=CCCCCCC[C@@](C)(N)C(=O)O; Cba = N[C@@H](CC1CCC1)C(=O)O; S5 = C=CCCC[C@](C)(N)C(=O)O

Tests used:
Caspase 3 = Caspase 3 detection assay in SJSA1 cells; type: cell-based; settings: 48 h, Caspase 3 activation over DMSO-treated cells; for caspase 0.3 uM: 0.3 uM peptide; for caspase 3 uM: 3 uM peptide; for caspase 10 uM: 10 uM peptide; for caspase 30 uM: 30 uM peptide; for caspase 1 uM: 1 uM peptide
MDM2 = MDM2 (Homo sapiens, UniProt Q00987); assay: Competitive fluorescence polarization assay for MDM2; type: binding; settings: competitive FP assay, MDM2
SJSA-1 cells = assay: Cell lysis by peptidomimetic macrocycles (LDH release); type: cell-based; settings: 1 h at 37C
MDMX = biological target: T1, MDMX (Homo sapiens, UniProt O15151); assay: Competitive fluorescence polarization assay for MDMX; type: binding; settings: competitive FP assay; for IC50: read-out: IC50 (MDMX); for Ki: read-out: Ki (MDMX)
T1 sequence (O15151 1-125): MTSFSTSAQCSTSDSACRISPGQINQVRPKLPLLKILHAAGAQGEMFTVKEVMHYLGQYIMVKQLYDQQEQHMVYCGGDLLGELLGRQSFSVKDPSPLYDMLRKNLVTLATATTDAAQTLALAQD

MDM2, sequence (Q00987 1-125): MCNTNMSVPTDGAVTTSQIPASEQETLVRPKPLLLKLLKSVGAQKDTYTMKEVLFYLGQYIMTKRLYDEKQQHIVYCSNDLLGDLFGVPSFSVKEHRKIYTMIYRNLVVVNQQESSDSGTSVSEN

SMILES | IC50 (MDM2; read-out: IC50 (MDM2)) [nM] | Ki (MDM2; read-out: Ki (MDM2)) [nM] | IC50 (MDMX) [nM] | Ki (MDMX) [nM] | caspase 0.3 uM (Caspase 3) | caspase 3 uM (Caspase 3) | caspase 10 uM (Caspase 3) | caspase 30 uM (Caspase 3) | 6.25 uM % Lysed cells (1 h LDH) (SJSA-1 cells) [%] | 25 uM % Lysed cells (1 h LDH) (SJSA-1 cells) [%] | 50 uM % Lysed cells (1 h LDH) (SJSA-1 cells) [%] | caspase 1 uM (Caspase 3) | IC50 (MDM2; IC50 (MDM2)) [nM] | Ki (MDM2; Ki (MDM2)) [nM]
CCCC[C@H](NC(=O)[C@H](C)NC(=O)[C@H](C)NC(=O)[C@]1(C)CCCC=CCCCCCC[C@@](C)(NC(=O)[C@H](Cc2ccccc2)NC(=O)[C@@H](NC(=O)[C@H](CC(C)C)NC(C)=O)[C@@H](C)O)C(=O)N[C@@H](C)C(=O)N[C@@H](Cc2ccc(O)cc2)C(=O)N[C@@H](Cc2c[nH]c3ccccc23)C(=O)N[C@@H](C)C(=O)N[C@@H](C)C(=O)N[C@@H](CC(C)C)C(=O)N1)C(=O)N[C@@H](C(N)=O)C(C)C (single isomer, unassigned) [compound 80] | 10 to 100 | < 10 | 100 to 1000 | 10 to 100 | 1 | 2 | 13 | 20 | 0 | 1 | 5 | – | – | –
CC(=O)N[C@@H](CC(C)C)C(=O)N[C@H](C(=O)N[C@@H](Cc1ccccc1)C(=O)N[C@]1(C)CCCCCCC=CCCC[C@@](C)(C(=O)N[C@@H](CO)C(=O)N[C@@H](C)C(=O)N[C@@H](C)C(N)=O)NC(=O)[C@H](CC2CCCCC2)NC(=O)[C@H](CCC(N)=O)NC(=O)[C@H](C)NC(=O)[C@H](Cc2c[nH]c3ccccc23)NC(=O)[C@H](Cc2ccc(O)cc2)NC(=O)[C@H](CCC(=O)O)NC1=O)[C@@H](C)O (single isomer, unassigned) [compound 148] | – | – | 100 to 1000 | 10 to 100 | 1 | 11 | 23 | 31 | 0 | −1 | 0 | – | – | –
CC(=O)N[C@@H](CC(C)C)C(=O)N[C@H](C(=O)N[C@@H](Cc1ccccc1)C(=O)N[C@]1(C)CCCCCCC=CCCC[C@@](C)(C(=O)N[C@@H](C)C(=O)N[C@@H](C)C(=O)N[C@@H](C)C(=O)N[C@@H](C)C(=O)N[C@@H](C)C(=O)N[C@@H](C)C(=O)N[C@H](C)C(N)=O)NC(=O)[C@H](CC(C)C)NC(=O)[C@H](CCC(N)=O)NC(=O)[C@H](C)NC(=O)[C@H](Cc2c[nH]c3ccccc23)NC(=O)[C@H](Cc2ccc(O)cc2)NC(=O)[C@H](C)NC1=O)[C@@H](C)O (single isomer, unassigned) [compound 316] | – | – | – | – | 6.5 | 21 | 32 | 32.5 | 0 | 0 | 1 | 10.5 | < 10 | < 10
CC(=O)N[C@@H](CC(C)C)C(=O)N[C@H](C(=O)N[C@@H](Cc1ccccc1)C(=O)N[C@]1(C)CCCCCCC=CCCC[C@@](C)(C(=O)N[C@@H](C)C(=O)N[C@@H](C)C(=O)N[C@@H](C)C(=O)N[C@@H](C)C(=O)N[C@@H](C)C(=O)N[C@@H](C)C(=O)N[C@H](C)C(N)=O)NC(=O)[C@H](CC(C)C)NC(=O)[C@H](CCC(N)=O)NC(=O)[C@H](C)NC(=O)[C@H](Cc2c[nH]c3ccccc23)NC(=O)[C@H](Cc2ccc(O)cc2)NC(=O)[C@H](C)NC1=O)[C@@H](C)O (single isomer, unassigned) [compound 317] | – | – | – | – | 3 | 9 | 26 | 35 | 0 | 0 | 0 | 4 | 10 to 100 | 10 to 100

Continued, in another order:

IC50 (MDM2; read-out: IC50 (MDM2)) [nM] | Ki (MDM2; read-out: Ki (MDM2)) [nM] | IC50 (MDMX) [nM] | Ki (MDMX) [nM] | SMILES | caspase 0.3 uM (Caspase 3) | caspase 3 uM (Caspase 3) | caspase 10 uM (Caspase 3) | caspase 30 uM (Caspase 3) | 6.25 uM % Lysed cells (1 h LDH) (SJSA-1 cells) [%] | 25 uM % Lysed cells (1 h LDH) (SJSA-1 cells) [%] | 50 uM % Lysed cells (1 h LDH) (SJSA-1 cells) [%] | caspase 1 uM (Caspase 3) | IC50 (MDM2; IC50 (MDM2)) [nM] | Ki (MDM2; Ki (MDM2)) [nM]
10 to 100 | < 10 | 100 to 1000 | 10 to 100 | CC(=O)N[C@@H](CC(C)C)C(=O)N[C@H](C(=O)N[C@@H](Cc1ccccc1)C(=O)N[C@]1(C)CCCCCCC=CCCC[C@@](C)(C(=O)N[C@@H](CO)C(=O)NC(C)(C)C(=O)N[C@@H](C)C(=O)N[C@@H](C)C(N)=O)NC(=O)[C@H](CC(C)C)NC(=O)[C@H](CCC(N)=O)NC(=O)[C@H](C)NC(=O)[C@H](Cc2c[nH]c3ccccc23)NC(=O)[C@H](Cc2ccc(O)cc2)NC(=O)[C@H](C)NC1=O)[C@@H](C)O (single isomer, unassigned) [compound 26] | 1 | 1 | 3 | 14 | 2 | −1 | 0 | – | – | –
10 to 100 | < 10 | 100 to 1000 | 10 to 100 | CC[C@H](C)[C@H](NC(=O)[C@H](C)NC(=O)[C@H](C)NC(=O)[C@]1(C)CCCC=CCCCCCC[C@@](C)(NC(=O)[C@H](Cc2ccccc2)NC(=O)[C@@H](NC(=O)[C@H](CC(C)C)NC(C)=O)[C@@H](C)O)C(=O)N[C@@H](C)C(=O)N[C@@H](Cc2ccc(O)cc2)C(=O)N[C@@H](Cc2c[nH]c3ccccc23)C(=O)N[C@@H](C)C(=O)N[C@@H](CCC(N)=O)C(=O)N[C@@H](CC(C)C)C(=O)N1)C(=O)N[C@@H](C)C(N)=O (single isomer, unassigned) [compound 65] | 1 | 6 | 28 | 34 | 0 | 0 | 2 | – | – | –
10 to 100 | < 10 | 100 to 1000 | 10 to 100 | CC[C@H](C)[C@H](NC(=O)[C@H](C)NC(=O)[C@H](C)NC(=O)[C@]1(C)CCCC=CCCCCCC[C@@](C)(NC(=O)[C@H](Cc2ccccc2)NC(=O)[C@@H](NC(=O)[C@H](CC(C)C)NC(C)=O)[C@@H](C)O)C(=O)N[C@@H](C)C(=O)N[C@@H](Cc2ccc(O)cc2)C(=O)N[C@@H](Cc2c[nH]c3ccccc23)C(=O)N[C@@H](C)C(=O)N[C@@H](C)C(=O)N[C@@H](CC(C)C)C(=O)N1)C(=O)N[C@@H](C(N)=O)C(C)C (single isomer, unassigned) [compound 77] | 1 | 2 | 19 | 23 | −2 | 1 | −1 | – | – | –
< 10 | < 10 | 100 to 1000 | 10 to 100 | CC(=O)N[C@@H](CC(C)C)C(=O)N[C@H](C(=O)N[C@@H](Cc1ccccc1)C(=O)N[C@]1(C)CCCCCCC=CCCC[C@@](C)(C(=O)N[C@@H](CO)C(=O)N[C@@H](CC(C)C)C(=O)N[C@@H](C)C(N)=O)NC(=O)[C@H](CC(C)C)NC(=O)[C@H](CCC(N)=O)NC(=O)[C@H](C)NC(=O)[C@H](Cc2c[nH]c3ccccc23)NC(=O)[C@H](Cc2ccc(O)cc2)NC(=O)[C@H](C)NC1=O)[C@@H](C)O (single isomer, unassigned) [compound 118] | 1 | 2 | 18 | 27 | 4 | 2 | 4 | – | – | –
10 to 100 | < 10 | 100 to 1000 | 10 to 100 | CC(=O)N[C@@H](CC(C)C)C(=O)N[C@H](C(=O)N[C@@H](Cc1ccccc1)C(=O)N[C@]1(C)CCCCCCC=CCCC[C@@](C)(C(=O)N[C@@H](CO)C(=O)N[C@@H](Cc2c[nH]c3ccccc23)C(=O)N[C@@H](C)C(N)=O)NC(=O)[C@H](CC(C)C)NC(=O)[C@H](CCC(N)=O)NC(=O)[C@H](C)NC(=O)[C@H](Cc2c[nH]c3ccccc23)NC(=O)[C@H](Cc2ccc(O)cc2)NC(=O)[C@H](C)NC1=O)[C@@H](C)O (single isomer, unassigned) [compound 120] | 2 | 11 | 20 | 30 | 0 | 0 | 6 | – | – | –
– | – | 10 to 100 | < 10 | CC(=O)N[C@@H](CC(C)C)C(=O)N[C@H](C(=O)N[C@@H](Cc1ccccc1)C(=O)N[C@]1(C)CCCCCCC=CCCC[C@@](C)(C(=O)N[C@@H](CO)C(=O)N[C@@H](C)C(=O)N[C@@H](C)C(=O)N[C@H](C)C(N)=O)NC(=O)[C@H](CC2CCC2)NC(=O)[C@H](CCC(N)=O)NC(=O)[C@H](C)NC(=O)[C@H](Cc2c[nH]c3ccccc23)NC(=O)[C@H](Cc2ccc(O)cc2)NC(=O)[C@H](CCC(=O)O)NC1=O)[C@@H](C)O (single isomer, unassigned) [compound 353] | 1 | 5 | 7 | 30 | 0 | 0 | 0 | 2 | – | –
– | – | 100 to 1000 | 10 to 100 | CC(=O)N[C@@H](CC(C)C)C(=O)N[C@H](C(=O)N[C@@H](Cc1ccccc1)C(=O)N[C@]1(C)CCCCCCC=CCCC[C@@](C)(C(=O)N[C@@H](CO)C(=O)N[C@@H](C)C(=O)N[C@@H](C)C(N)=O)NC(=O)[C@H](CC2CCC2)NC(=O)[C@H](CCC(N)=O)NC(=O)[C@H](C)NC(=O)[C@H](Cc2ccc3ccccc3c2)NC(=O)[C@H](Cc2ccc(O)cc2)NC(=O)[C@H](CCC(=O)O)NC1=O)[C@@H](C)O [compound 254] (Ac-LTF[R8]EY[2Nal]AQ[Cba][S5]SAA-NH2; staple 4-11) | 1 | 7 | 14 | 22 | 11 | 60 | 75 | 3 | – | –
